Laboratory results: EPA's ToxValDB 9.5 (doi:10.2903/j.efsa.2012.2496)

Columns and labels:
Oryctolagus sp. = details: developmental; development
Mus musculus = details: subchronic; duration: 90 days; oral; organ weight
Canidae = details: oral, Dog Other, organ weight

SMILES: C=CCSC(=O)n1c(N)c(-c2ccccc2C)c(=O)n1C(C)C [Fenpyrazamine]
- LC50 (Colinus virginianus; acute, oral, diet, mortality): > 954 mg/kg-day
- LD50 (Colinus virginianus; acute, oral, mortality): > 2000 mg/kg-day
- NOEC (Colinus virginianus; reproduction developmental): 82.9 mg/kg-day
- NOAEL (Oryctolagus sp.): 30 mg/kg-day
- NOAEL (Mus musculus): 28 mg/kg-day
- LD50 (Rattus norvegicus; acute, oral, mortality): > 2000 mg/kg-day
- NOAEL (Rattus norvegicus; chronic, duration: 2 years, M, histopathology: nonneoplastic): 12.7 mg/kg-day
- NOAEL (Rattus norvegicus; reproduction developmental, F, organ weight): 20.3 mg/kg-day
- NOAEL (Rattus norvegicus; reproduction developmental, M, organ weight): 20 mg/kg-day
- NOEL (Rattus norvegicus; reproduction developmental, body weight): 28.5 mg/kg-day
- NOAEL (Canidae; chronic, duration: 1 years): 25 mg/kg-day
- NOAEL (Canidae; subchronic, duration: 90 days): 25 mg/kg-day
